The target in assay [1] is Cyclin-dependent kinase 1 (Homo sapiens) (UniProt P06493). The experiment in a line: Selectivity interaction (Kinase panel (KiNativ target engagement assay in Jurkat cells)) EUB0001635a CDK1. It is filed as cell-based. The conditions noted are these: Selectivity number of off-targets 0.0, Selectivity number of targets 233.0, Source Knowledge https://www.sciencedirect.com/science/article/pii/S2451945619300674?via%3Dihub, at 1 µM.

Assay [2] deals with Tyrosine-protein kinase ABL1 (Homo sapiens), P00519 [F317L]. The assay can be described thus: (§1) Selectivity interaction (Ambit KINOMEscan and KiNATiv profiling in Jurkat cells) EUB0000090b ABL1. Type of assay: cell-based. The conditions noted are these: at 1 µM.
Tyrosine-protein kinase ABL1 (Homo sapiens), P00519 [F317L], sequence (P00519 whole entry F317L): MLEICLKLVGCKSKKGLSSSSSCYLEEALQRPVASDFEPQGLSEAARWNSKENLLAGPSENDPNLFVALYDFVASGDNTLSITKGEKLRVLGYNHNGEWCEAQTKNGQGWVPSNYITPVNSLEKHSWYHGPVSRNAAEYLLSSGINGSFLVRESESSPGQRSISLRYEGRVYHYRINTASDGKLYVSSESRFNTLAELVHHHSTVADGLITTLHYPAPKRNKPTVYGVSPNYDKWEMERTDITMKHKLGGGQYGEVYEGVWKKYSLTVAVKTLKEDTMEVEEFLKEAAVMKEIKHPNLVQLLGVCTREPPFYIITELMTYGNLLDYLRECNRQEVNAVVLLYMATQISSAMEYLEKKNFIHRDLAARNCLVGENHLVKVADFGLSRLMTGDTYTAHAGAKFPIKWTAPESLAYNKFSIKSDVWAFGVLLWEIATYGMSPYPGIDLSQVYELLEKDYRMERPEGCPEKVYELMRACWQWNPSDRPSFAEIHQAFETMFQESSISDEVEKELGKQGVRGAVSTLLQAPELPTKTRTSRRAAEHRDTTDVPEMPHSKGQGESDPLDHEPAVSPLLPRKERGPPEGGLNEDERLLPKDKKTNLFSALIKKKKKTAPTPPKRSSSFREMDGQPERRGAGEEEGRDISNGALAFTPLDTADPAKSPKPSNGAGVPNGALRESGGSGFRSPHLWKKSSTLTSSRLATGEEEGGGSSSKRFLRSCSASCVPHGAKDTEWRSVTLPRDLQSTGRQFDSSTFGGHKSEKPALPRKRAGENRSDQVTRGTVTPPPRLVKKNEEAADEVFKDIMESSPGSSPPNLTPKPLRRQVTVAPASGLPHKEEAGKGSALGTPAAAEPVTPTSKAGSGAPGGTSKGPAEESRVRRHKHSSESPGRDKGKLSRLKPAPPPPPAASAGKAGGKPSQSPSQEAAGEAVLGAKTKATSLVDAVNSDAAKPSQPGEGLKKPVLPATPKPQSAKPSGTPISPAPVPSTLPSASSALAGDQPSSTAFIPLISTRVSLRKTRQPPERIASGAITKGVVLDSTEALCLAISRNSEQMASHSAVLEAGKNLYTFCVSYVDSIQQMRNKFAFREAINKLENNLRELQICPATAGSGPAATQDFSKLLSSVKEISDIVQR
The target of assay [3] is Tyrosine-protein kinase ABL1 (Homo sapiens, UniProt P00519). Described as §1. Type of assay: cell-based. As to conditions: at 1 µM.
Tyrosine-protein kinase ABL1, sequence (P00519 whole entry): as the sequence (P00519 whole entry F317L) above, with L317F counted along it
Assay [4] concerns the target Receptor tyrosine-protein kinase erbB-3 (Homo sapiens) (UniProt P21860). As to conditions: at 10 µM.
The target in assay [5] is Angiopoietin-1 receptor (Homo sapiens) (UniProt Q02763). As to conditions: at 10 µM.
Angiopoietin-1 receptor (Homo sapiens), sequence (Q02763 whole entry): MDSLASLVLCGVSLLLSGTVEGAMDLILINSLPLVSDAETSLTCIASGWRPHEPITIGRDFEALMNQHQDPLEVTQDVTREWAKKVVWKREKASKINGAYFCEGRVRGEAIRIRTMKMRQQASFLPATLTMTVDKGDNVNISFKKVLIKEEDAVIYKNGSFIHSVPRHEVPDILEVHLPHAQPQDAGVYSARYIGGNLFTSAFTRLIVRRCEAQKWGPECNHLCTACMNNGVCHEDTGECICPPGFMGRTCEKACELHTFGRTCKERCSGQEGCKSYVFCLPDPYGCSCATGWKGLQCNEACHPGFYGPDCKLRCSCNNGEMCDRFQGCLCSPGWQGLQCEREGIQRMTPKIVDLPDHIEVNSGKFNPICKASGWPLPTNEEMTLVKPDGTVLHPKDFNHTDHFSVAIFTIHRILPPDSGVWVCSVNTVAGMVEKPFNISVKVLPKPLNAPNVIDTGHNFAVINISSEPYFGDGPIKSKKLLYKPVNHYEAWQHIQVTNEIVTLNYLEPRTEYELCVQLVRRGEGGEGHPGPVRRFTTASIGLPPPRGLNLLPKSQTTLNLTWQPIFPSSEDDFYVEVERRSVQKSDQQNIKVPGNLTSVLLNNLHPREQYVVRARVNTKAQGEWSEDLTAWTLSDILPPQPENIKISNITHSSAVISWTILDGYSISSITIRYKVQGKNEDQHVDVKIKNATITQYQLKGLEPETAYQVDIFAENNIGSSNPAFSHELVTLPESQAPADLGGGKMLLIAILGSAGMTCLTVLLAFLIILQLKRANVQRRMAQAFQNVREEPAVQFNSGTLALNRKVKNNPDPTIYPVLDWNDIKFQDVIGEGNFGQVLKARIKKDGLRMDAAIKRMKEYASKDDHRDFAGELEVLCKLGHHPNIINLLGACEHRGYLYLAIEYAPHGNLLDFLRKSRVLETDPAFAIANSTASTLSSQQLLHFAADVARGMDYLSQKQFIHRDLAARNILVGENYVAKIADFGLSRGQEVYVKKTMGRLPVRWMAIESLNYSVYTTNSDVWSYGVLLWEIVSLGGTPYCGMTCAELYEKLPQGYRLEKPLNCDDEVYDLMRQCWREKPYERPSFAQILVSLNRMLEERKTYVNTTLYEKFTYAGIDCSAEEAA
Assay [6] has as its target T1, Histone-lysine N-methyltransferase SUV39H1 (Homo sapiens) (UniProt O43463).
T1 sequence (whole entry): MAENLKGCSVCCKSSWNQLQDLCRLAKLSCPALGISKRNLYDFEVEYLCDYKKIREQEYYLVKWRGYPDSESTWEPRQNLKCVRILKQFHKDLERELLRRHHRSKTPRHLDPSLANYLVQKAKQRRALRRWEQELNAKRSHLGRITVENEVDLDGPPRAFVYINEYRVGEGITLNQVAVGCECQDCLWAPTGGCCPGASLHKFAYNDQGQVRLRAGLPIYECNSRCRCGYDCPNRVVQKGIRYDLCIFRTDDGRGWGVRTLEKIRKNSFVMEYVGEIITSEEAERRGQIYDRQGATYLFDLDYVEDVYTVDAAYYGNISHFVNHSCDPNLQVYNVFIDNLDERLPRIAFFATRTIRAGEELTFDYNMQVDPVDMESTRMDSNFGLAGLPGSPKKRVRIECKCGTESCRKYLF
As to conditions: at 10 µM.

Assay [7] concerns the target Receptor tyrosine-protein kinase erbB-4 (Homo sapiens, UniProt Q15303). The experiment in a line: Selectivity interaction (KinomeScan (DiscoverX)) EUB0001619a ERBB4. The conditions noted are these: at 1 µM.
For assay [8], the target named is T2, Ephrin type-B receptor 1 (Homo sapiens) (UniProt P54762).
T2 sequence (whole entry): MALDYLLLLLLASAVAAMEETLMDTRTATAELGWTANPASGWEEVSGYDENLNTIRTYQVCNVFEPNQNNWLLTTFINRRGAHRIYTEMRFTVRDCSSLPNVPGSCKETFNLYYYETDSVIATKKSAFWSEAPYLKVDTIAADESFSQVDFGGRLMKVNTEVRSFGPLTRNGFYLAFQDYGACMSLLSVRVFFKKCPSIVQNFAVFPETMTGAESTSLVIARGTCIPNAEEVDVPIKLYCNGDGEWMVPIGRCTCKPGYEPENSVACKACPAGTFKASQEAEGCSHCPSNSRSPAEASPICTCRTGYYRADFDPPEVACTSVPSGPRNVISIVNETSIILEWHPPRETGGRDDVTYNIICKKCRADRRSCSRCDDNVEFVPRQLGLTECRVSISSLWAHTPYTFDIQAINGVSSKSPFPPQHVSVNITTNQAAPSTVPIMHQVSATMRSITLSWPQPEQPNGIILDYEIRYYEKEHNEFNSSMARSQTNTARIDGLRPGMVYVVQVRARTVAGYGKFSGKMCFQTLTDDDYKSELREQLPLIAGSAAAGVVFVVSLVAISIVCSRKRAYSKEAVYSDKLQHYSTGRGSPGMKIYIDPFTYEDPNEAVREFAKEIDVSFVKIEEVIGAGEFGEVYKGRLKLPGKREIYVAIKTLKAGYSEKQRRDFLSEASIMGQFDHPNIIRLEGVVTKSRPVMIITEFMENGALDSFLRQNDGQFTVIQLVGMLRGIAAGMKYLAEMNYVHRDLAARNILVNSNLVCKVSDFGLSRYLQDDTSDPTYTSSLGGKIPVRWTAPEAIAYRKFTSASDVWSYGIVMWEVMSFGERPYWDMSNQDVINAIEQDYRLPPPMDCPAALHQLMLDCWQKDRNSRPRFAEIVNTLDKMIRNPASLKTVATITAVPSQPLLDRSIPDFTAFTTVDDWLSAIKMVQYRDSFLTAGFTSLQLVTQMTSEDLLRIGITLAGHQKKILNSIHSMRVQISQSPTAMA
The assay can be described thus: Selectivity interaction (KinomeScan (DiscoverX)) EUB0001619a EPHB1. The conditions noted are these: at 1 µM.

Assay [9] has as its target RAF proto-oncogene serine/threonine-protein kinase (Homo sapiens) (UniProt P04049). The assay can be described thus: Selectivity interaction (KinomeScan (DiscoverX)) EUB0001619a RAF1. As to conditions: at 1 µM.
The target in assay [10] is Ribosomal protein S6 kinase alpha-2 (Homo sapiens) (UniProt Q15349). The experiment in a line: Selectivity interaction (KinomeScan (DiscoverX)) EUB0001619a RPS6KA2. As to conditions: at 1 µM.
Ribosomal protein S6 kinase alpha-2 (Homo sapiens), sequence (Q15349 whole entry): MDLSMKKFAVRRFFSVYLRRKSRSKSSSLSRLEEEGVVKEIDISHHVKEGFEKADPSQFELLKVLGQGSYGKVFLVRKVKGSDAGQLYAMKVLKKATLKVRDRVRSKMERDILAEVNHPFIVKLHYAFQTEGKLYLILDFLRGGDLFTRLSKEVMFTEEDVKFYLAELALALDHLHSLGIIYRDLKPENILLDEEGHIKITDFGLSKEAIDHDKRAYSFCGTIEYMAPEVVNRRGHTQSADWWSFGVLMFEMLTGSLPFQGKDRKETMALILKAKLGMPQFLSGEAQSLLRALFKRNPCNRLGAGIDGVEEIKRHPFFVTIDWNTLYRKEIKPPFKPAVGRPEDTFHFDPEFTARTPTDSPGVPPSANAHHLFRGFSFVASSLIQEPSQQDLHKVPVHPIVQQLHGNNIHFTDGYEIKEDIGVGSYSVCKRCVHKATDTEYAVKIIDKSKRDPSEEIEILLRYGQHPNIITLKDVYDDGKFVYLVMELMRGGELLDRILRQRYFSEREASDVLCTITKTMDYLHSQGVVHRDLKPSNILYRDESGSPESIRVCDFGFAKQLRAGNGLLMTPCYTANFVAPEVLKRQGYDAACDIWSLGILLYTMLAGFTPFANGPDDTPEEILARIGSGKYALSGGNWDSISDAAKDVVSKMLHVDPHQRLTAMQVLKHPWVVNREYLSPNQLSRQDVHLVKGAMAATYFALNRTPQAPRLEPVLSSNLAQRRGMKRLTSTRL
Assay [11] has as its target Non-receptor tyrosine-protein kinase TYK2 (Homo sapiens, UniProt P29597). The experiment in a line: Selectivity interaction (ActivX KiNativ screen (kinase selectivity in THP-1 cell lysates)) EUB0000639a TYK2. As to conditions: lysate, at 0.01 µM. Type of assay: subcellular.
The target of assay [12] is Serine/threonine-protein kinase PAK 3 (Homo sapiens) (UniProt O75914). The experiment in a line: Selectivity interaction (Kinase screening (Nanosyn)) EUB0000604a PAK3.
Serine/threonine-protein kinase PAK 3 (Homo sapiens), sequence (O75914 whole entry, looked up): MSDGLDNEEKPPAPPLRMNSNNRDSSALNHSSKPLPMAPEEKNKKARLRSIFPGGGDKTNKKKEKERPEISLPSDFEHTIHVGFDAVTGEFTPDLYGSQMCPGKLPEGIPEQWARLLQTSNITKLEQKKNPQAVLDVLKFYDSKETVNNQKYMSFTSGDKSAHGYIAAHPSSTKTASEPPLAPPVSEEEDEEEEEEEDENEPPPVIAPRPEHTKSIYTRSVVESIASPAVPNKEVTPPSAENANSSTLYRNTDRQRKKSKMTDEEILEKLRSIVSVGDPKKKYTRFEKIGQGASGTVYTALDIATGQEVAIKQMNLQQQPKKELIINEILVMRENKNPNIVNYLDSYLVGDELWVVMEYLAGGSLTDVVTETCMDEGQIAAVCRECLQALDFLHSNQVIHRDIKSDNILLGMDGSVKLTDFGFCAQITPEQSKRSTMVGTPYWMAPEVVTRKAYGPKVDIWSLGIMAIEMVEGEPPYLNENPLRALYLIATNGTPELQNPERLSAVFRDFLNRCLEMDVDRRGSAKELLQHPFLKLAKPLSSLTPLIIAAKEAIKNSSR
The target of assay [13] is Mitogen-activated protein kinase 11 (Homo sapiens) (UniProt Q15759). As to conditions: at 10 µM.
For assay [14], the target named is T3, Mitogen-activated protein kinase 13 (Homo sapiens) (UniProt O15264).
T3 sequence (whole entry): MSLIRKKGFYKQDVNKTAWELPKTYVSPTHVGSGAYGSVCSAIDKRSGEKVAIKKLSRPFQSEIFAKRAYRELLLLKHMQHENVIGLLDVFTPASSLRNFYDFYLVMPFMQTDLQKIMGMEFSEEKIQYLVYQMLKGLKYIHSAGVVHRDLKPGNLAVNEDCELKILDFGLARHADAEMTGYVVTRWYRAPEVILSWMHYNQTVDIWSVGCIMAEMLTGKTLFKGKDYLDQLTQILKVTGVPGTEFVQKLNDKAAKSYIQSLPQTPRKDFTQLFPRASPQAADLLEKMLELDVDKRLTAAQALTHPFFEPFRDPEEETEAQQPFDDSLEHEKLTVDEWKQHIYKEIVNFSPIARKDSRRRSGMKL
The assay can be described thus: Selectivity interaction (KinomeScan (DiscoverX)) EUB0000092b MAPK13. As to conditions: at 10 µM.

For assay [15], the target named is Tyrosine-protein kinase receptor Tie-1 (Homo sapiens) (UniProt P35590). The experiment in a line: Selectivity interaction (KinomeScan (DiscoverX)) EUB0000045b TIE1.
Tyrosine-protein kinase receptor Tie-1 (Homo sapiens), sequence (P35590 whole entry): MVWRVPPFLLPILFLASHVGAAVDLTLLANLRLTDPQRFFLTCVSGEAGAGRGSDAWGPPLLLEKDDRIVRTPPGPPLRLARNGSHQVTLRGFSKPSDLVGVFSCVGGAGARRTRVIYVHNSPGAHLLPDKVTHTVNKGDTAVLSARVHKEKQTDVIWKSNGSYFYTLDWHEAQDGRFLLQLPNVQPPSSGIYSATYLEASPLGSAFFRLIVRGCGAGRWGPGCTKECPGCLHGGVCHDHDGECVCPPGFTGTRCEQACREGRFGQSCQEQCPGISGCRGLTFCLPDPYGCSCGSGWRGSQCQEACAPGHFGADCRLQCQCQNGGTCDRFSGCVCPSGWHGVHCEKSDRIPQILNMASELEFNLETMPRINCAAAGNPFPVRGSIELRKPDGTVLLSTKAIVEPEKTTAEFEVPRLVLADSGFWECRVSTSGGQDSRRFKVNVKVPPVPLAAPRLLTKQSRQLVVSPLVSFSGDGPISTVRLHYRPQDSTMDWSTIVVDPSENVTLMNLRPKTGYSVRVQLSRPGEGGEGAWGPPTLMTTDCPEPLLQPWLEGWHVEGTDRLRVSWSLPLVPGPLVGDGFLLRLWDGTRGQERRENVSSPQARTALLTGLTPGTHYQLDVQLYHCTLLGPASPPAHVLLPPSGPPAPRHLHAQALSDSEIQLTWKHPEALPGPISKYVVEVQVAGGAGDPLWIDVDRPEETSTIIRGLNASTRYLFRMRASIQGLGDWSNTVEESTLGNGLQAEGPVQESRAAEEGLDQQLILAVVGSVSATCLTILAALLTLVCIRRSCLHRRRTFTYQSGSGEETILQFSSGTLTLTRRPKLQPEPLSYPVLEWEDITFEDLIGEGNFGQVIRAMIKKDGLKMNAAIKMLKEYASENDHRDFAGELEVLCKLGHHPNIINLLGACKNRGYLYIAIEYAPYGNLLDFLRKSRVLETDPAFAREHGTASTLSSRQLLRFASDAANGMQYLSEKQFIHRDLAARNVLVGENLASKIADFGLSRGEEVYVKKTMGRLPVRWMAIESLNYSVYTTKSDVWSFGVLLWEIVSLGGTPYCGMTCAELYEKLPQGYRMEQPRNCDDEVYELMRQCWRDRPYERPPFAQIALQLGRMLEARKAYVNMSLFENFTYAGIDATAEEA
In assay [16] the target is T3, Mitogen-activated protein kinase 13 (Homo sapiens). The experiment in a line: Selectivity interaction (KinomeScan (DiscoverX)) EUB0000045b MAPK13.
Assay [17] deals with Serine/threonine-protein kinase NIM1 (Homo sapiens, UniProt Q8IY84). The assay can be described thus: Selectivity interaction (KinomeScan (DiscoverX)) EUB0000618a NIM1K. The conditions noted are these: at 10 µM.

The structures appear in SMILES notation. A value given as a limit tells only on which side of the number the result lay.

Cyclin-dependent kinase 1 (Homo sapiens), sequence (P06493 whole entry, looked up): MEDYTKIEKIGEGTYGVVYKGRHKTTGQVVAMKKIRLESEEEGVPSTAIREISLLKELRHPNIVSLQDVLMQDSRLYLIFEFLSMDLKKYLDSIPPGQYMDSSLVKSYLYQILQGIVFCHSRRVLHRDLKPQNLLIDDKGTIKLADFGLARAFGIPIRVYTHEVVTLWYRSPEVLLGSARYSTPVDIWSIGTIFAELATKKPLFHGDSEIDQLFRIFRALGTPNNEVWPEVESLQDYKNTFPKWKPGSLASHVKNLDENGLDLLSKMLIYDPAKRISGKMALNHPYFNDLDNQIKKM

With `C=CC(=O)Nc1ccc(C(=O)Nc2[nH]nc3c2CN(C(=O)N[C@H](CN(C)C)c2ccccc2)C3(C)C)cc1`, the % of engagement in [1] was -6.3%.
On to `CN(C)C/C=C/C(=O)Nc1ccc(C(=O)N2CCCC(Nc3ncc(Cl)c(-c4c[nH]c5ccccc45)n3)C2)cc1` (centres undefined), for which the % of control is 100% in [2] and 97% in assay [3].
In the case of `Cc1cc([C@@H](C)Nc2ccccc2C(=O)O)c2nc(N3CCOCC3)cc(=O)n2c1` [AZD-6482], the % of control in assay [4] and in [5] was 100% in each case.
Regarding `CNCCN1CCC(c2cc(CN(C)C(=O)c3cccc(Oc4ccccc4)c3)ccn2)CC1`, the % activity in [6] is > 90%.
Take `N#Cc1cccc(-c2c[nH]c3ncnc(N4CCOCC4)c23)c1`: the % of control in assay [7] is 100%; in assay [8], 100%; in assay [9], 71%; in assay [10] it was 82%.
In [11], `CC[C@@H]1[C@H](F)C(=O)N[C@@H]1COc1nccc2cc(C(N)=O)c(OC)cc12` [ZIMLOVISERTIB] yielded a % of inhibition of 18.9%.
For the compound `Cc1cnc(Nc2ccc(F)cc2Cl)nc1-c1c[nH]c(C(=O)N[C@H](CO)c2cccc(Cl)c2)c1`, in assay [12], the % of inhibition is 3%.
In the case of `CCN(CC)CCCCNc1ncc2cc(-c3cc(OC)cc(OC)c3)c(NC(=O)NC(C)(C)C)nc2n1`, the % of control in [13] is 100%.
Turning to `CCC(=O)N1CCN(c2ccc(-n3c(=O)ccc4cnc5ccc(-c6cnc7ccccc7c6)cc5c43)cc2C(F)(F)F)CC1`, the % of control in assay [14] was found to be 39%.
Turning to `C=CC(=O)Nc1cc(-n2c(=O)ccc3cnc4ccc(-c5ccc(NS(C)(=O)=O)cc5)cc4c32)ccc1C`, the % of control was determined as 100% in [15] (at 1 µM), 89% in assay [15] (at 10 µM), 100% in assay [16] (at 1 µM) and 100% in [16] (at 10 µM).
As for `O[C@H]1CC[C@H](Nc2ncc3nc(Nc4c(F)cc(F)cc4F)n([C@H]4CCOC4)c3n2)CC1`, the % of control in assay [17] was 100%.

These data come from ChEMBL document CHEMBL5465560, “Selectivity Literature for EUbOPEN Chemogenomic Library” (2024).
